The source of these data is US8138186B2, “Pyrazole derivatives as sigma receptors antagonists” (Laboratorios Del Dr. Esteve, S.A., priority 2006, dated 2012).

As usually defined, the melting point is the temperature of the solid-liquid transition.

Counter-ions that a name gives are not always drawn.

The target of one data set is σ1-receptor (Cavia porcellus, UniProt Q60492). Briefly: σ1-receptor binding assay, [3H](+)-pentazocine, brain membranes. The conditions noted are these: [3H](+)-pentazocine 0.5 nM, guinea pig brain membranes; for % Binding σ1 10^−7M: compound 10^−7M; for % Binding σ1 10^−8M: compound 10^−8M.
For the next data set, the target named is sigma (σ-2) site (Homo sapiens, UniProt Q5BJF2). The settings on record: cited from earlier work.
A further data set deals with sigma 1 (σ-1) site (Homo sapiens, UniProt Q99720). The settings on record: cited from earlier work.
For data set [1] the following is noted: cited from earlier work.

Chain of σ1-receptor (Q60492 whole entry): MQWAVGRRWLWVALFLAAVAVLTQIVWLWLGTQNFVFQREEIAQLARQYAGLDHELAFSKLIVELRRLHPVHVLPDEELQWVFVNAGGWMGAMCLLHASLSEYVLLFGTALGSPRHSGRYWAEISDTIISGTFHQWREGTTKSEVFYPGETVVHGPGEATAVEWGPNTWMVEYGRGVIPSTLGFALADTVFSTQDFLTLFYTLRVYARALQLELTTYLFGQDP
Chain of sigma 1 (σ-1) site (Q99720 whole entry): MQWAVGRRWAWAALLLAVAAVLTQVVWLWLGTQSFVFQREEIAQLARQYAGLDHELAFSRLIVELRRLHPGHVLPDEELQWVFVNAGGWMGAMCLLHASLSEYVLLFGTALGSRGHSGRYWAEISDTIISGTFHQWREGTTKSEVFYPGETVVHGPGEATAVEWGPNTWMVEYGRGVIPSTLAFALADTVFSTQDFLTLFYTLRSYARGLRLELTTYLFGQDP
Chain of sigma (σ-2) site (Q5BJF2 whole entry): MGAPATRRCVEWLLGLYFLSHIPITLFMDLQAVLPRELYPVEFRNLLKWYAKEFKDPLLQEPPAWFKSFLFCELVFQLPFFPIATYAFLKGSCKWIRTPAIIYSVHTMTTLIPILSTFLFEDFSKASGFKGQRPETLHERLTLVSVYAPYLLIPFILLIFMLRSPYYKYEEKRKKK
Method for σ1-receptor: Brain membrane preparation and binding assays for the σ1-receptor were performed as described (DeHaven-Hudkins et al., 1992) with some modifications. In brief, guinea pig brains were homogenized in 10 vols. (w/v) of Tris-HCl 50 mM 0.32 M sucrose, pH 7.4, with a Kinematica Polytron PT 3000 at 15000 r.p.m. for 30 s. The homogenate was centrifuged at 1000 g for 10 min at 4° C. and the supernatants collected and centrifuged again at 48000 g for 15 min at 4° C. The pellet was resuspended in 10 volumes of Tris-HCl buffer (50 mM, pH 7.4), incubated at 37° C. for 30 min, and centrifuged at 48000 g for 20 min at 4° C. Following this, the pellet was resuspended in fresh Tris-HCl buffer (50 mM, pH 7.4) and stored on ice until use.
Each assay tube contained 10 μL of [^3H](+)-pentazocine (final concentration of 0.5 nM), 900 μL of the tissue suspension to a final assay volume of 1 mL and a final tissue concentration of approximately 30 mg tissue net weight/mL. […] All tubes were incubated at 37° C. for 150 min before termination of the reaction by rapid filtration over Schleicher & Schuell GF 3362 glass fibre filters [previously soaked in a solution of 0.5% polyethylenimine for at least 1 h]. Filters were then washed with four times with 4 mL of cold Tris-HCl buffer (50 mM, pH 7.4). Following addition of scintillation cocktail, the samples were allowed to equilibrate overnight. The amount of bound radioactivity was determined by liquid scintillation spectrometry using a Wallac Winspectral 1414 liquid scintillation counter.

Regarding `Clc1ccc(-n2ccc(OCCOCCN3CCCCC3)n2)cc1Cl` [Example 6, 1-(2-(2-(1-(3,4-dichlorophenyl)-1H-pyrazol-3-yloxy)ethoxy)ethyl)piperidine], on σ1-receptor, the “% Binding σ1 10^−7M” value worked out at 82.8% and the “% Binding σ1 10^−8M” value is 23.7%.
Compound `Clc1ccc(-n2ccc(OCCOCCN3CCOCC3)n2)cc1Cl.O=C(O)C(=O)O` [Example 7, 4-(2-(2-(1-(3,4-dichlorophenyl)-1H-pyrazol-3-yloxy)ethoxy)ethyl)morpholine oxalate] came in with a melting point of 154 to 156 °C. Further, on σ1-receptor, the “% Binding σ1 10^−7M” value worked out at 61.6% and the “% Binding σ1 10^−8M” value turned out to be 25.8%.
SKF 10047: the “affinity for the sigma (σ-2) site” value on sigma (σ-2) site was “micromolar affinity”. Besides, the “affinity for the sigma 1 (σ-1) site” value on sigma 1 (σ-1) site is reported as “nanomolar affinity”.
In the case of `C[C@@H]1CN(CCCn2c3ccccc3c3ccccc32)C[C@H](C)N1` [rimcazole], in data set [1], the “clinical effects in the treatment of psychosis” value is given as “shows effects in the treatment of psychosis”.
With `O=C(O)C(=O)O.OC(COc1ccn(-c2ccc(Cl)c(Cl)c2)n1)CN1CCCC1` (stereo not shown) [Example 3, 1-(1-(3,4-dichlorophenyl)-1H-pyrazol-3-yloxy)-3-(pyrrolidin-1-yl)propan-2-ol oxalate], on σ1-receptor, the “% Binding σ1 10^−7M” value came to 55.9% and the “% Binding σ1 10^−8M” value worked out at 32.6%.
In the case of `OC(COc1ccn(-c2ccc(Cl)c(Cl)c2)n1)CN1CCOCC1` (stereo not shown) [Example 1, 1-(1-(3,4-dichlorophenyl)-1H-pyrazol-3-yloxy)-3-morpholinopropan-2-ol oxalate], on σ1-receptor, the “% Binding σ1 10^−7M” value was 70.3% and the “% Binding σ1 10^−8M” value is recorded as 22.2%.
Turning to `O=C(O)C(=O)O.OC(COc1ccn(-c2ccc(Cl)c(Cl)c2)n1)CN1CCCCC1` (stereo not shown) [Example 2, 1-(1-(3,4-dichlorophenyl)-1H-pyrazol-3-yloxy)-3-(piperidin-1-yl)propan-2-ol oxalate], the melting point was in the range of 116 to 119 °C. On σ1-receptor, the “% Binding σ1 10^−7M” value was found to be 72.2% and the “% Binding σ1 10^−8M” value is listed as 4.2%.
For `CN1CCN(CC(O)COc2ccn(-c3ccc(Cl)c(Cl)c3)n2)CC1.O=C(O)C(=O)O` (stereo not shown), the melting point lay within 189 to 192 °C.
